Reference: US20230212170A1, “INHIBITORS OF KRAS G12C PROTEIN AND USES THEREOF” (SHANGHAI ANTENGENE CORPORATION LIMITED, priority 2020, published 2023)
pIC50: −log10 of the molar value.

Target: KRAS G12C (Homo sapiens, UniProt P01116, G12C)
Assay: KRAS G12C nucleotide exchange assay (SOS1-mediated, mant-GDP fluorescence)
Type: biochemical
Set-up: KRas(1-169) G12C protein
Conditions: 15 min pre-incubation
Description: Assay 1: KRAS G12C Nucleotide Exchange Assay
1×Loading buffer: 20 mM HEPES, pH 7.5, 50 mM NaCl, 0.5 mM MgCl2, 1 mM DTT, 5 mM EDTA
1×Equilibration buffer: 20 mM HEPES, pH 7.5, 150 mM NaCl, 1 mM MgCl2, 1 mM DTT
1×Assay buffer: 20 mM HEPES, pH 7.5, 150 mM NaCl, 1 mM MgCl2, 0.01% Tween-20, 1 mM DTT
2. Load Mant GDP to KRAS G12C:
a. A mixed solution of 100 µL mant GDP and KRAS G12C was prepared with 1×loading buffer: 60 um KRAS G12C, 600 um […], incubated at room temperature for 60 minutes, and the reaction was carried out in dark conditions.
b. Add 1 uL 1 m MgCl2 (final concentration 10 mm) to stop the reaction, mix the solution upside down in the centrifuge tube, centrifugate for 3-5 seconds, and incubate at room temperature for 30 minutes.
c. At the same time of incubation for 30 minutes, balance nap-5 column with 10 ml ix equipment buffer until no liquid drops.
d. Drop the mixed solution of 100 uL mant GDP and KRAS G12C into the center of nap-5 column. After the sample completely enters nap-5 column, add 400 µL 1× equipment buffer until no liquid drops.
e. Add 500 ul 1× equipment buffer for elution and collect eluant.
f. Determination of KRAS G12C mant GDP with Bradford protein quantitative Kit.
3. Nucleotide Exchange Experiment:
a. Transfer 50 NL DMSO/compound to 384 well plate with echo550.
b. 10 uL enzyme mix was added into 384 pore plate and incubated with DMSO/compound for 15 min.
c. Initial reaction with 10 µL Sos1/GTP mix.
d. Immediately after reaction, read ex360/em440 fluorescence value in kinetic mode with Nivo.
a. Use Graphpad software to process data and draw pictures.
b. K value is obtained in Graphpad software by fitting One phase experimental deck model.
c. Z′=1-3*(SdKmax+SdKmin)/(AveKmax−AveKmin)
d. In % is calculated by the following formula:
Inh%=(Kmax−Ksample)/(Kmax−Kmin)*100

KRAS G12C, sequence (P01116 1-169 isoform P01116-2 G12C): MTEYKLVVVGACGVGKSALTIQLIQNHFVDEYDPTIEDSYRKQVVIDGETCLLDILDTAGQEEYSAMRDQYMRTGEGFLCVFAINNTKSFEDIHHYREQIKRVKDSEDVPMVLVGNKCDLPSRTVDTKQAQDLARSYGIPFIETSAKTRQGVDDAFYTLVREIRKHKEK

| Compound | pIC50 |
| --- | --- |
| C=CC(=O)N1CCN(c2nc(OC[C@@H]3CCCN3C)nc3c(=O)n(-c4cccc5cccc(Cl)c45)c(C)nc23)CC1 [Compound 3, (S)-8-(4-acryloylpiperazin-1-yl)-3-(8-chloronaphthalen-1-yl)-2-methyl-6-((1-methylpyrrolidin-2-yl)methoxy)pyrimido[5,4-d]pyrimidin-4(3H)-one] | 5.08 |
| C=CC(=O)N1CCN(c2nc(OC[C@@H]3CCCN3C)nc3c(=O)n(-c4cccc5ccccc45)cnc23)CC1 [Compound 5, (S)-8-(4-acryloylpiperazin-1-yl)-6-((1-methylpyrrolidin-2-yl)methoxy)-3-(naphthalen-1-yl)pyrimido[5,4-d]pyrimidin-4(3H)-one] | 4.28 |
| C=CC(=O)N1CCN(c2nc(OC[C@@H]3CCCN3C)nc3c(=O)n(-c4cccc5cccc(C)c45)c(C)nc23)CC1 [Compound 6, (S)-8-(4-acryloylpiperazin-1-yl)-2-methyl-3-(8-methylnaphthalen-1-yl)-6-((1-methylpyrrolidin-2-yl)methoxy)pyrimido[5,4-d]pyrimidin-4(3H)-one] | 5.75 |
| C=CC(=O)N1CCN(c2nc(OC[C@@H]3CCCN3C)nc3c(=O)n(-c4cccc5cccc(C)c45)c(C)nc23)C[C@@H]1CC#N [Compound 7, 2-((S)-1-acryloyl-4-(6-methyl-7-(8-methylnaphthalen-1-yl)-2-(((S)-1-methylpyrrolidin-2-yl)methoxy)-8-oxo-7,8-dihydropyrimido[5,4-d]pyrimidin-4-yl)piperazin-2-yl)acetonitrile] | 6.41 |
| C=CC(=O)N1C[C@H](C)N(c2nc(OC[C@@H]3CCCN3C)nc3c(=O)n(-c4cccc5cccc(Cl)c45)c(C)nc23)C[C@@H]1C [Compound 8, 8-((2S,5S)-4-acryloyl-2,5-dimethylpiperazin-1-yl)-3-(8-chloronaphthalen-1-yl)-2-methyl-6-(((S)-1-methylpyrrolidin-2-yl)methoxy)pyrimido[5,4-d]pyrimidin-4(3H)-one] | 4.22 |
| C=CC(=O)N1CCN(c2nc(OC[C@@H]3CCCN3C)nc3c(=O)n(-c4cccc5cccc(CC)c45)c(C)nc23)C[C@@H]1CC#N [Compound 9, 2-((S)-1-acryloyl-4-(7-(8-ethylnaphthalen-1-yl)-6-methyl-2-(((S)-1-methylpyrrolidin-2-yl)methoxy)-8-oxo-7,8-dihydropyrimido[5,4-d]pyrimidin-4-yl)piperazin-2-yl)acetonitrile] | 5.97 |
| C=CC(=O)N1CCN(c2nc(OC[C@@H]3CCCN3C)nc3c(=O)n(-c4cccc5cccc(C6CC6)c45)c(C)nc23)C[C@@H]1CC#N [Compound 10, 2-((S)-1-acryloyl-4-(7-(8-cyclopropylnaphthalen-1-yl)-6-methyl-2-(((S)-1-methylpyrrolidin-2-yl)methoxy)-8-oxo-7,8-dihydropyrimido [5,4-d]pyrimidin-4-yl)piperazin-2-yl)acetonitrile] | 6.08 |
| C=CC(=O)N1CCN(c2nc(OC[C@@H]3CCCN3C)nc3c(=O)n(-c4cccc5cccc(C(=C)C)c45)c(C)nc23)C[C@@H]1CC#N [Compound 11, 2-((S)-1-acryloyl-4-(6-methyl-2-(((S)-1-methylpyrrolidin-2-yl)methoxy)-8-oxo-7-(8-(prop-1-en-2-yl)naphthalen-1-yl)-7,8-dihydropyrimido[5,4-d]pyrimidin-4-yl)piperazin-2-yl)acetonitrile] | 5.53 |
| C=CC(=O)N1CCN(c2nc(OC[C@@H]3CCCN3C)nc3c(=O)n(-c4cc(OC)cc5ccccc45)c(C)nc23)C[C@@H]1CC#N [Compound 12, 2-((S)-1-acryloyl-4-(7-(3-methoxynaphthalen-1-yl)-6-methyl-2-(((S)-1-methylpyrrolidin-2-yl)methoxy)-8-oxo-7,8-dihydropyrimido[5,4-d]pyrimidin-4-yl)piperazin-2-yl)acetonitrile] | 6.05 |
| C=CC(=O)N1CCN(c2nc(OC[C@@H]3CCCN3C)nc3c(=O)n(-c4cccc5cccc(Cl)c45)c(CC)nc23)C[C@@H]1CC#N [Compound 13, 2-((S)-1-acryloyl-4-(7-(8-chloronaphthalen-1-yl)-6-ethyl-2-(((S)-1-methylpyrrolidin-2-yl)methoxy)-8-oxo-7,8-dihydropyrimido[5,4-d]pyrimidin-4-yl)piperazin-2-yl)acetonitrile] | 6.41 |
| C=CC(=O)N1CCN(c2nc(OC[C@@H]3CCCN3C)nc3c(=O)n(-c4cccc5ccccc45)c(CC)nc23)C[C@@H]1CC#N [Compound 14, 2-((S)-1-acryloyl-4-(6-ethyl-2-(((S)-1-methylpyrrolidin-2-yl)methoxy)-7-(naphthalen-1-yl)-8-oxo-7,8-dihydropyrimido[5,4-d]pyrimidin-4-yl)piperazin-2-yl)acetonitrile] | 6.07 |
| C=CC(=O)N1CCN(c2nc(OC[C@@H]3CCCN3C)nc3c(=O)n(-c4cccc5ncccc45)c(C)nc23)C[C@@H]1CC#N [Compound 15, 2-((S)-1-acryloyl-4-(6-methyl-2-(((S)-1-methylpyrrolidin-2-yl)methoxy)-8-oxo-7-(quinolin-5-yl)-7,8-dihydropyrimido[5,4-d]pyrimidin-4-yl)piperazin-2-yl)acetonitrile] | 5.53 |
| C=CC(=O)N1CCN(c2nc(OC[C@@H]3CCCN3C)nc3c(=O)n(-c4c(C)c(C)cc5[nH]ncc45)c(C)nc23)C[C@@H]1CC#N [Compound 16, 2-((S)-1-acryloyl-4-(7-(5,6-dimethyl-1H-indazol-4-yl)-6-methyl-2-(((S)-1-methylpyrrolidin-2-yl)methoxy)-8-oxo-7,8-dihydropyrimido[5,4-d]pyrimidin-4-yl)piperazin-2-yl)acetonitrile] | 6.09 |
| C=CC(=O)N1CCN(c2nc(OC[C@@H]3CCCN3C)nc3c(=O)n(-c4cccc5ccccc45)c(-c4ccccc4)nc23)C[C@@H]1CC#N [Compound 17, 2-((S)-1-acryloyl-4-(2-(((S)-1-methylpyrrolidin-2-yl)methoxy)-7-(naphthalen-1-yl)-8-oxo-6-phenyl-7,8-dihydropyrimido[5,4-d]pyrimidin-4-yl)piperazin-2-yl)acetonitrile] | 6.32 |
| C=CC(=O)N1CCN(c2nc(OC[C@@H]3CCCN3C)nc3c(=O)n(-c4cccc5ccccc45)c(-c4ccccc4)nc23)CC1 [Compound 18, (S)-8-(4-acryloylpiperazin-1-yl)-6-((1-methylpyrrolidin-2-yl)methoxy)-3-(naphthalen-1-yl)-2-phenylpyrimido[5,4-d]pyrimidin-4(3H)-one] | 5.00 |
| C=CC(=O)N1CCN(c2nc(OC[C@@H]3CCCN3C)nc3c2CCCC(c2c(C)ccc4[nH]ncc24)C3)CC1 (stereo partly drawn) [Compound 20, 1-(4-(8-(5-methyl-1H-indazol-4-yl)-2-(((S)-1-methylpyrrolidin-2-yl)methoxy)-6,7,8,9-tetrahydro-5H-cyclohepta[d]pyrimidin-4-yl)piperazin-1-yl)prop-2-en-1-one] | 5.54 |
| C=CC(=O)N(C)C1CCN(c2nc(OC[C@@H]3CCCN3C)nc3c2CCN(c2cccc4cccc(Cl)c24)C3)C1 (stereo partly drawn) [Compound 21, N-(1-(7-(8-chloronaphthalen-1-yl)-2-(((S)-1-methylpyrrolidin-2-yl)methoxy)-5,6,7,8-tetrahydropyrido[3,4-d]pyrimidin-4-yl)pyrrolidin-3-yl)-N-methylacrylamide] | 4.72 |
| C=CC(=O)N1CCN(c2nc(OC[C@@H]3CCCN3C)nc3c(=O)n(-c4c(C)ccc5[nH]ncc45)c(C)nc23)CC1 [Compound 22, (S)-8-(4-acryloylpiperazin-1-yl)-2-methyl-3-(5-methyl-1H-indazol-4-yl)-6-((1-methylpyrrolidin-2-yl)methoxy)pyrimido[5,4-d]pyrimidin-4(3H)-one] | 4.64 |
| C=CC(=O)N1CCN(c2nc(OC[C@@H]3CCCN3C)nc3c(=O)n(-c4c(C)ccc5[nH]ncc45)c(C)nc23)C[C@@H]1CC#N [Compound 23, 2-((S)-1-acryloyl-4-(6-methyl-7-(5-methyl-1H-indazol-4-yl)-2-(((S)-1-methylpyrrolidin-2-yl)methoxy)-8-oxo-7,8-dihydropyrimido[5,4-d]pyrimidin-4-yl)piperazin-2-yl)acetonitrile] | 6.15 |
| C=CC(=O)N1CCN(c2nc(OC[C@@H]3CCCN3C)nc3c(=O)n(-c4cccc5ccccc45)c(C)nc23)CC1 [Example 1, (S)-8-(4-acryloylpiperazin-1-yl)-2-methyl-6-((1-methylpyrrolidin-2-yl)methoxy)-3-(naphthalen-1-yl)pyrimido[5,4-d]pyrimidin-4(3H)-one] | 4.45 |
